Experimental data taken from patent US7022524B1, “Increasing plant growth with luminol” (The Regents of the University of California, Office of …, priority 1998, dated 2006).
One block for each compound: values may come before it.

Legend:
alfalfa seedlings = assay: Net photosynthesis measured as radioactive 14CO2 incorporation in alfalfa seedlings; assay type: in vivo, Medicago sativa L.
Procedure: Twenty hours after treating alfalfa roots with purified compound D, 25% to 30% increases in net photosynthesis was effected, as measured by radioactive ^14CO2 incorporation tests. Purified compound D was supplied at approximately 100 pM in solution surrounding roots of three day old alfalfa seedlings. Net photosynthesis was measured as radioactive ^14CO2 incorporation by exposing randomized treatments of all plants simultaneously for about 15 minutes to ^14CO2 in a single chamber with thorough mixing of the chamber atmosphere. Data points were means from two to four replicates, each of which contained approximately 400 seedlings.
The isotopic assay for measuring net photosynthesis with ^14CO2 is described in Sheikholeslam (1980) Botanical Gazette 141:48-52. Briefly, to measure net photosynthesis, intact seedling are placed in a clear plastic box with direct exposure to sunlight or artificial lights. Isotopically labeled ^14CO2 is generated in the plant chamber by injecting an acid solution through a rubber stopper in the wall of the box and into a beaker containing ^14C-bicarbonate. The ^14CO2 released by that chemical reaction is distributed throughout the box with a fan. After 15 minutes of photosynthesis in the presence of ^14CO2, plants are frozen in liquid nitrogen and separated into roots, stems and leaves. The amount of ^14CO2 is measured in the various plant parts with a scintillation counter after chemical digestion of the plant matter.

R. meliloti 1021 = assay: Production of compounds D and Y by bacterial cultures in supplemented medium; assay type: cell-based, Rhizobium meliloti; settings: culture medium supplemented at final concentration of 50 micromolar
[1] = tested on: alfalfa (Medicago sativa L.) roots; assay: Root respiration (CO2 evolution / O2 uptake by gas chromatograph) of excised alfalfa roots after treating intact seedlings; assay type: in vivo
Procedure: Rhizobium meliloti 1021 (Rm1021) (Meade (1982) J. Bacteriol. 149:114-122) were grown to the early stationary phase in a defined minimal medium (as described in Vincent (1970) In “A Manual for the Practical Study of Root-Nodule Bacteria, Blackwell Scientific Publications, Oxford, UK). Bacteria were collected by centrifugation and washed three times with sterile water before roots were inoculated. UV irradiance for killing cells in some experiments was supplied as a 25 minute treatment with a transilluminator(model T1202, Sigma). The absence of living cells in UV-killed cultures and sterile, non-inoculated control treatments was verified by plating on tryptone yeast medium.
If respiration is to be measured, it is important that the plants be grown under sterile conditions for the respiration measurements (see, e.g., Guri, et al., U.S. Pat. No. 5,503,652, describing compositions and methods to prevent microbial contamination of plant tissue culture media). Seeds of alfalfa (Medicago sativa L. cv Moapa 69) were surface sterilized for 15 minutes in 70% ethanol, rinsed with water, and allowed to imbibe for four hours with aeration before germinating in a hydroponic system (as in Maxwell (1989) Plant Physiol. 91:842-847) containing nitrogen free nutrient solution (see DeJong (1981) Plant Physiol. 68:309-313). Each 400 mL plastic box contained one gram of seeds and produced about 400 seedlings after being maintained in a sterile manner for about three days with aeration at 25° C. under indirect sunlight supplemented with fluorescent lights. Plants used in these experiments consisted of cotyledons and roots with an occasional primary leaf.
Experiments used 5×10^7 colony-forming units (CFU) of bacteria per mL of plant nutrient solution unless otherwise noted. Bacteria were harvested from their growth medium, washed twice in sterile water, suspended in 1 mL of water and added to the plant nutrient solution of alfalfa seedlings 3 days after germination, when roots were approximately 4-cm long. Sterile water (1 mL) was added to the sterile non-inoculated controls. Plants were harvested to measure root respiration at various times, depending of the experiment. At harvest, roots were excised, blotted briefly on a paper towel, weighed, and enclosed in a 10-mL gas-tight test tube. Each replicate contained 1 gram fresh wt of roots from about 200 plants; every experiment had three or four replicates; and all experiments were repeated at least twice.
All assays were conducted for 30 minutes immediately after excision. Changes in CO2, and in some experiments O2, were measured at 45° C. with a thermistor detector on a Sigma 4 gas chromatograph equipped with a column (3.05 m×3.2 mm) containing Chromosorb 102 for CO2 and Molecular Sieve 5A for O2. Helium was used as the carrier gas at flow rates of 15 cm^3/min for O2 and 35 cm^3/min for CO2. The change in gas composition during the first 30 min after the roots were enclosed in the assay tubes (described above) was used to calculate respiration rates. Data were analyzed with standard statistical methods to determine SE or LSD0.05 values for comparisons of treatment effects by Student's t test or analysis of variance (see, e.g., Steel et al., (1960) Principles and Procedures of Statistics. McGraw-Hill, N.Y.).
Moapa 69′ alfalfa seeds for all experiments were soaked 30 min in 70% ethanol, rinsed with sterile water, treated 5 min in concentrated H2SO4, rinsed with sterile water, soaked 30 min in commercial bleach and then washed with sterile water. For respiration tests approximately 400 seeds (1 gram) were germinated on a 10×10-cm screen above a hydroponic nutrient solution, see Volpin (1998) Plant Physiol. 116:777-783. In some hydroponic experiments the nutrient solution was supplemented to contain ampicillin (125 mg/L) and rifampicin (10 mg/L). Plant growth experiments were done in sterile pots (10×10×10 cm) containing vermiculite. […]

alfalfa = assay: Plant growth (dry weight of shoots and roots) of alfalfa after root or seed treatment; assay type: in vivo, Medicago sativa L.
Procedure: In another experiment, treating alfalfa seedling roots with purified compound D at a presumed concentration of about 100 pM every 48 hours for 10 days increased the final shoot dry mass (as determined by weighing) 10% relative to untreated control plants.
Moapa 69′ alfalfa seeds for all experiments were soaked 30 min in 70% ethanol, rinsed with sterile water, treated 5 min in concentrated H2SO4, rinsed with sterile water, soaked 30 min in commercial bleach and then washed with sterile water. For respiration tests approximately 400 seeds (1 gram) were germinated on a 10×10-cm screen above a hydroponic nutrient solution, see Volpin (1998) Plant Physiol. 116:777-783. In some hydroponic experiments the nutrient solution was supplemented to contain ampicillin (125 mg/L) and rifampicin (10 mg/L). Plant growth experiments were done in sterile pots (10×10×10 cm) containing vermiculite. The pots were watered with the hydroponic nutrient solution (Volpin (1998) supra) supplemented to contain 1 mM NH4NO3 and various lumichrome treatments every second day. In all experiments, plants were grown under controlled conditions using a 12/12-hour day/night photoperiod and a 25/20° C. temperature regime with a photon flux density (400-700 nm) of 250 μmol/m^2-s.
Lumichrome effects on plant growth were tested by treating roots or seeds. Surface-sterilized seeds were soaked 2 hours in either 0 or 5 nM lumichrome. Then 50 seeds were planted in vermiculite in each pot. Plants germinating from untreated seeds received nutrient solution containing 0, 5 or 50 nM lumichrome. Plants developing from seeds soaked in 5 nM lumichrome were watered with lumichrome-free nutrient solution. Pots were covered initially with a clear, plastic wrap, which was removed after 6 days. Plants were harvested 12 days after germination, and roots and shoots were separated, dried, and weighed.

[2] = Stability to light and heat; assay type: physicochemical; settings: e.g., 40° C.
[3] = Solubility and hydrophobicity; assay type: physicochemical; settings: for solubility during purification: all solvents; for solubility: purified compounds, water, methanol; for hydrophobicity: removed from aqueous solution in C18 resin
[4] = about 100 pM to seedling roots every 48 hours for 10 days

SMILES: CC(=O)c1c(O)cc(O)c(C(C)=O)c1O [diacetylphloroglucinol, 2,4-diacetyl-1,3,5-benzenetriol]
increase in net photosynthesis in plants (alfalfa seedlings; applied to roots in nanomolar concentrations): ≤ 50% | effect on the production of compound Y (R. meliloti 1021): no consistent effect

stability to light and heat [2]: degraded by light and heat | solubility during purification [3]: Solubility problems | solubility [3]: soluble in both water and methanol | hydrophobicity [3]: moderately hydrophobic
SMILES: Cc1cc2nc3[nH]c(=O)[nH]c(=O)c3nc2cc1C [lumichrome, 7,8,-dimethylalloxazine]
increase in root respiration ([1]; 3 to 50 nM treatments of alfalfa roots, several experiments, P≦0.05): 11% to 30% | increase in root respiration ([1]; alfalfa roots treated with 3 nM, within 48 hours, P≦0.05): 21% | time for the (slower) increase in root respiration ([1]; in vivo): greater than 4 hours | increase in root respiration ([1]; intact root systems exposed 39 hours, 3 nM lumichrome or S. meliloti cells 10^7 cfu/ml, P≦0.05): 21% | increase in net photosynthesis over untreated control (alfalfa seedlings; approximately 100 pM around roots of three day old seedlings, 20 hours after treating roots): 25% to 30% | time to peak of 14CO2 incorporation (alfalfa seedlings; no more than 100 pM): 5 to 10 h | increase in net photosynthesis above untreated controls (alfalfa seedlings; no more than 100 pM, 8 hour time point after treating roots): 45% to 75% | 14CO2 incorporation (alfalfa seedlings; no more than 100 pM, after approximately 20 hours): about 2.0 ^14CO2 cpm×10^5 per gram cotyledon | 14CO2 incorporation, peak (alfalfa seedlings; no more than 100 pM, peak after about 5 to 10 hours, negative control about 1.5): 2.5 to 2.75 ^14CO2 cpm×10^5 per gram cotyledon | increase in plant growth (alfalfa; 5 nM applied to young alfalfa roots, after 12 days, P≦0.05): 8% | change in root dry weight (alfalfa; [4]): no increase in root dry weight | increase in final shoot dry mass relative to untreated control plants (alfalfa; [4]): 10% | increase in plant growth (alfalfa; alfalfa seeds soaked in 5 nM before germination, 12 days, P≦0.01): 18% | root mass relative to control (alfalfa; lumichrome-treated plants, 12 days): numerically, but not significantly, larger | increase in shoot dry weight relative to control shoots (alfalfa; root drench 5 nM, 12 days, P≦0.05): 7% | increase in shoot dry weight relative to control shoots (alfalfa; root drench 50 nM, 12 days, P≦0.01): 12% | increase in dry matter on a whole-plant basis (alfalfa; roots exposed or seeds immersed before germination, P≦0.05): 8% to 18% | increase in shoot dry weight relative to control shoots (alfalfa; seed soaking 5 nM, 12 days, P≦0.01): 18%

SMILES: CC(=O)c1c(O)cc(O)cc1O [monoacetylphloroglucinol]
effect on the production of compound Y (R. meliloti 1021): no consistent effect

SMILES: Oc1cc(O)cc(O)c1 [phloroglucinol, reference compound]
effect on the production of compound Y (R. meliloti 1021): no consistent effect

stability to light and heat [2]: degraded by light and heat | solubility during purification [3]: only marginally better | solubility [3]: soluble in both water and methanol | hydrophobicity [3]: moderately hydrophobic
SMILES: Cc1cc2nc3c(=O)[nH]c(=O)nc-3n(C[C@H](O)[C@H](O)[C@H](O)CO)c2cc1C [riboflavin]
increase in root respiration compared with lumichrome ([1]; 200 nM riboflavin, one test): approximately the same increase in root respiration as 30 nM lumichrome | increase in root respiration ([1]; very low (e.g., picomolar) concentrations, various experiments): 11% to 31% | enhancement of net photosynthesis (alfalfa seedlings; very low (e.g., picomolar) concentrations): ≤ 7%
